The results in this text go back to ChEMBL document CHEMBL3396972, “Synthesis and biological evaluation of DAPY-DPEs hybrids as non-nucleoside inhibitors of HIV-1 reverse transcriptase” (Bioorg Med Chem, 2015).

The subject of data set [1] is Human immunodeficiency virus 1. The data set can be described thus: Antiviral activity against wild type HIV-1 3B infected in human MT4 cells assessed as reduction of virus-induced cytopathic effect after 5 days by MTT assay. Format: functional, organism-based. The settings on record: Human immunodeficiency virus 1, 3B, MT4, 120 h.
For data set [2], the system named is Human immunodeficiency virus 1. Nature of the data set: Antiviral activity against HIV-1 RES056 harboring reverse transcriptase K103N/Y181C double mutant infected in human MT4 cells assessed as reduction of virus-induced cytopathic effect after 5 days by MTT assay. Format: functional, organism-based. The settings on record: Human immunodeficiency virus 1, RES056, MT4, 120 h.

Data set [3] relates to Human immunodeficiency virus 2. Nature of the data set: Antiviral activity against wild type HIV-2 ROD infected in human MT4 cells assessed as reduction of virus-induced cytopathic effect after 5 days by MTT assay. Format: functional, organism-based. The settings on record: Human immunodeficiency virus 2, ISOLATE ROD, MT4, 120 h. (Cytopathic effects are the visible damage that an infection or toxin causes in cultured cells.)

Data set [4] is described as follows: Cytotoxicity against human MT4 cells after 5 days MTT assay. Format: cell-based. (Formazan colour is commonly taken as a measure of viable cells.)
The nature of data set [5]: Selectivity index, ratio of CC50 for human MT4 cells to EC50 for wild type HIV-1 3B infected in human MT4 cells. Format: toxicity, cell-based. The settings on record: read-out: Ratio CC50/EC50.
Data set [6] deals with Human immunodeficiency virus type 1 reverse transcriptase (Human immunodeficiency virus 1, UniProt Q72547). Nature of the data set: Inhibition of wild type HIV1 p66/p51 reverse transcriptase by spectrofluorometry.

The structures appear in SMILES notation.

The term EC50 denotes the concentration at which the effect is half-maximal. A word on the CC50: it is the concentration at which the toxic effect on the cells reaches its halfway point. For `Cc1cc(OCC(=O)Nc2ccc(Cl)cc2)nc(Nc2ccc(C#N)cc2)n1`, the EC50 in data set [1] was greater than 2.63 µM; in data set [2], 2.63 µM; in data set [3] it was 2.63 µM. Moreover, the CC50 at 120 h in data set [4] is 2.63 µM. Moreover, the selectivity ratio in data set [5] was less than 1.

As a reminder, the IC50 is the concentration that gives 50% inhibition. Lower therefore signals greater potency. Take `Cc1cnc(Nc2ccc(C#N)cc2)nc1OCC(=O)Nc1ccc(F)cc1`: the half-maximal effective concentration (EC50) in data set [1] is no less than 34.5 µM; in data set [2], greater than 331 µM; in data set [3] it was greater than 331 µM. Moreover, in data set [4], the CC50 at 120 h was greater than 331 µM. The IC50 in data set [6] worked out at 18.9 µM.

Take `Cc1cc(OCC(=O)Nc2cccc(Cl)c2)nc(Nc2ccc(C#N)cc2)n1`: the figures for the EC50 in data set [1], in data set [2] and in data set [3] were 0.17 µM, greater than 32.1 µM and greater than 32.1 µM, respectively. In data set [4], this compound displayed a CC50 at 120 h of 32.1 µM. Also, the selectivity ratio in data set [5] is 197. The compound also yielded an IC50 in data set [6] of 0.54 µM.

As for `Cc1cnc(Nc2ccc(C#N)cc2)nc1OCC(=O)Nc1ccc(C#N)cc1`, the EC50 in data set [1] is 2.42 µM; in data set [2], greater than 48.4 µM; in data set [3] it was greater than 48.4 µM. Moreover, the CC50 at 120 h in data set [4] is no less than 48.4 µM. For the same compound, in data set [5], the selectivity ratio was no less than 20. The compound also gave an IC50 in data set [6] of 17.6 µM.

Take `COc1ccc(NC(=O)COc2ccnc(Nc3ccc(C#N)cc3)n2)cc1`: the EC50 is 49.1 µM in data set [1], greater than 333 µM in data set [2] and greater than 333 µM in data set [3]. In data set [4], this compound yielded a CC50 at 120 h greater than 333 µM. Moreover, the selectivity ratio in data set [5] is greater than 7. In data set [6], 24.6 µM corresponded to half-maximal inhibition (IC50).

Consider `N#Cc1ccc(Nc2nccc(OCC(=O)Nc3ccc(F)cc3)n2)cc1`, for which the 50% effective concentration (EC50) in data set [1], in data set [2] and in data set [3] was greater than 344 µM in each case. In data set [4], the CC50 at 120 h is greater than 344 µM.

Take `Cc1cnc(Nc2ccc(C#N)cc2)nc1OCC(=O)Nc1ccc([N+](=O)[O-])cc1`: the EC50 in data set [1], in data set [2] and in data set [3] was greater than 66.3 µM each time. This compound came in with a CC50 at 120 h in data set [4] of 66.3 µM. In addition, the selectivity ratio in data set [5] was less than 1.

Consider `Cc1cc(C#N)cc(C)c1Oc1nc(Nc2ccc(C#N)cc2)nc(N)c1Br` [ETRAVIRINE], for which the EC50 in data set [1] is 0.0017 µM; in data set [2], 0.013 µM; in data set [3], greater than 13.3 µM. This compound came in with a CC50 at 120 h in data set [4] of 13.3 µM. The selectivity ratio in data set [5] worked out at 7680.

Regarding `N#Cc1ccc(NC(=O)COc2ccnc(Nc3ccc(C#N)cc3)n2)cc1`, the concentration for a half-maximal effect (EC50) in data set [1] was no less than 35.1 µM; in data set [2] it was greater than 338 µM; in data set [3] it was greater than 338 µM. Moreover, the CC50 at 120 h in data set [4] is greater than 338 µM. The compound also registered an IC50 in data set [6] of 23.9 µM.

For `Cc1cnc(Nc2ccc(C#N)cc2)nc1OCC(=O)Nc1cccc(Cl)c1`, the EC50 is 0.05 µM in data set [1], greater than 144 µM in data set [2] and greater than 144 µM in data set [3]. Further, the midpoint of cytotoxicity in data set [4], the CC50 at 120 h, lay at 144 µM. Further, the selectivity ratio in data set [5] was 2890. The IC50 in data set [6] was determined as 0.16 µM.

Turning to `Cc1cc(OCC(=O)Nc2ccc(C#N)cc2F)nc(Nc2ccc(C#N)cc2)n1`, the EC50 in data set [1] and in data set [3] was greater than 311 µM each time. The CC50 at 120 h in data set [4] was greater than 311 µM.

Consider `Cc1cc(OCC(=O)Nc2ccc([N+](=O)[O-])cc2)nc(Nc2ccc(C#N)cc2)n1`, for which the EC50 in data set [1] and in data set [3] was greater than 309 µM throughout. The same compound registered a CC50 at 120 h in data set [4] greater than 309 µM.

As to `O=C1Nc2ccc(Cl)cc2[C@@](C#CC2CC2)(C(F)(F)F)O1` [EFAVIRENZ], in data set [1], the EC50 came to 0.0062 µM. The compound further had a cytotoxic concentration (CC50) at 120 h in data set [4] greater than 6.34 µM.

For the compound `Cc1cnc(Nc2ccc(C#N)cc2)nc1OCC(=O)Nc1ccccc1Cl`, the results for the EC50 in data set [1], in data set [2] and in data set [3] were 0.017 µM, greater than 197 µM and greater than 197 µM, respectively. The compound also came in with a cytotoxic concentration (CC50) at 120 h in data set [4] of 197 µM. For the same compound, the selectivity ratio in data set [5] is 11300. Half-maximal inhibition in data set [6] (IC50) was put at 0.046 µM.

Regarding `Nc1ccn([C@@H]2CS[C@H](CO)O2)c(=O)n1` [LAMIVUDINE], in data set [4], the CC50 at 120 h is greater than 87.2 µM. Further, in data set [5], the selectivity ratio is greater than 39.

As for `CC(C)Nc1cccnc1N1CCN(C(=O)c2cc3cc(NS(C)(=O)=O)ccc3[nH]2)CC1` [DELAVIRDINE], the EC50 was 0.65 µM in data set [1] and greater than 43.8 µM in data set [2]. The CC50 at 120 h in data set [4] is greater than 43.8 µM. The selectivity ratio in data set [5] is greater than 67.

Consider `Cc1cnc(Nc2ccc(C#N)cc2)nc1OCC(=O)Nc1ccc(C#N)cc1F`, for which the EC50 was 3.03 µM in data set [1], greater than 311 µM in data set [2] and greater than 311 µM in data set [3]. For the same compound, in data set [4], the CC50 at 120 h is greater than 311 µM. In addition, in data set [5], the selectivity ratio was greater than 102. For the same compound, the IC50 in data set [6] was found to be 12 µM.

For the compound `N#Cc1ccc(Nc2nccc(OCC(=O)Nc3ccc([N+](=O)[O-])cc3)n2)cc1`, the EC50 in data set [1], in data set [2] and in data set [3] was greater than 320 µM throughout. The compound further came in with a half-maximal cytotoxic concentration (CC50) at 120 h in data set [4] greater than 320 µM.

Turning to `Cc1cc(OCC(=O)Nc2ccc(F)cc2)nc(Nc2ccc(C#N)cc2)n1`, the EC50 in data set [1], in data set [2] and in data set [3] was greater than 331 µM in each case. This compound displayed a CC50 at 120 h in data set [4] greater than 331 µM.

For `Cc1cn([C@H]2C[C@H](N=[N+]=[N-])[C@@H](CO)O2)c(=O)[nH]c1=O` [ZIDOVUDINE], the EC50 in data set [2] was found to be 0.01 µM; in data set [3] it was 0.0066 µM. In addition, the 50% cytotoxic concentration (CC50) at 120 h in data set [4] was greater than 93.5 µM.

On to `Cc1ccnc2c1NC(=O)c1cccnc1N2C1CC1` [NEVIRAPINE], for which, in data set [2], the EC50 was no less than 7.59 µM. In addition, the CC50 at 120 h in data set [4] is greater than 15 µM.

Compound `O=c1[nH]cnc2c1ncn2[C@H]1CC[C@@H](CO)O1` [DIDANOSINE] showed a CC50 at 120 h in data set [4] greater than 212 µM. Moreover, the selectivity ratio in data set [5] was greater than 9.

For `Cc1cnc(Nc2ccc(C#N)cc2)nc1OCC(=O)Nc1ccccc1F`, the half-maximal effective concentration (EC50) in data set [1] is 0.013 µM; in data set [2] it was greater than 331 µM; in data set [3], greater than 331 µM. The CC50 at 120 h in data set [4] is greater than 331 µM. The selectivity ratio in data set [5] was greater than 25200. The IC50 in data set [6] stood at 0.083 µM.

As to `Cc1cnc(Nc2ccc(C#N)cc2)nc1OCC(=O)Nc1ccc(Cl)cc1`, the EC50 in data set [1], in data set [2] and in data set [3] was greater than 317 µM each time. Moreover, the CC50 at 120 h in data set [4] was greater than 317 µM.

For the compound `N#Cc1ccc(Nc2nccc(OCC(=O)Nc3cccc(Cl)c3)n2)cc1`, the EC50 in data set [1] is 0.035 µM; in data set [2], greater than 329 µM; in data set [3] it was greater than 329 µM. The CC50 at 120 h in data set [4] was greater than 329 µM. Besides, the selectivity ratio in data set [5] was greater than 9340. In data set [6], this compound returned an IC50 of 0.12 µM.

Regarding `Cc1cc(OCC(=O)Nc2ccc(C#N)cc2)nc(Nc2ccc(C#N)cc2)n1`, the EC50 in data set [1] and in data set [3] was greater than 325 µM each time. In data set [4], this compound registered a CC50 at 120 h greater than 325 µM.

On to `N#Cc1ccc(Nc2nccc(OCC(=O)Nc3ccc(Cl)cc3)n2)cc1`, for which the EC50 in data set [1] is 19.2 µM; in data set [2], greater than 162 µM; in data set [3], 162 µM. In addition, the midpoint of cytotoxicity in data set [4], the CC50 at 120 h, lay at 162 µM. In addition, the selectivity ratio in data set [5] was 8. Besides, the IC50 in data set [6] was determined as 26.9 µM.

On to `N#Cc1ccc(Nc2nccc(OCC(=O)Nc3ccc(C#N)cc3F)n2)cc1`, for which the EC50 in data set [1], in data set [2] and in data set [3] was greater than 322 µM in each case. The CC50 at 120 h in data set [4] is greater than 322 µM.

Regarding `Cc1cc(OCC(=O)Nc2ccc(Br)cc2)nc(Nc2ccc(C#N)cc2)n1`, the EC50 in data set [1] is greater than 0.93 µM; in data set [3] it was 0.93 µM. The compound also showed a CC50 at 120 h in data set [4] of 0.93 µM. Also, the selectivity ratio in data set [5] is less than 1.

For `Cc1cnc(Nc2ccc(C#N)cc2)nc1OCC(=O)Nc1ccc(Br)cc1`, the EC50 in data set [1], in data set [2] and in data set [3] was greater than 34.7 µM throughout. The midpoint of cytotoxicity in data set [4], the CC50 at 120 h, lay at 34.7 µM. Besides, the selectivity ratio in data set [5] is less than 1.
